Data on six molecules can be found in article PMC12916490 (Molecular Psychiatry, 2025).

One data set concerns the target T1, hTAAR1 (Homo sapiens, UniProt Q96RJ0).
T1 construct: expressed in transfected cells
T1 sequence (Q96RJ0 1-339): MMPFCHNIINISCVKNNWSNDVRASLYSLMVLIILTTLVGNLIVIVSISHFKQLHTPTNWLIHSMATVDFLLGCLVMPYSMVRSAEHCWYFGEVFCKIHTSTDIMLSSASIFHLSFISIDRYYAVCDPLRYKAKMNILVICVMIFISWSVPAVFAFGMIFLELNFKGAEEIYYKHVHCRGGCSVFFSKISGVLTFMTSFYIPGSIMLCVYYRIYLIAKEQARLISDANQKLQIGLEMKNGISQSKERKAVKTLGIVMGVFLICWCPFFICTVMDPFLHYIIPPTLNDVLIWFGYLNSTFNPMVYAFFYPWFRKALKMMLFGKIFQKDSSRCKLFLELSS
In words: Functional activity at human TAAR1 (cAMP). In kind it is cell-based. As to conditions: for Emax: mean (95% CI), β-phenylethylamine as maximal response, read-out: hTAAR1 Activation efficacy Emax. Here is the method: Activity at the human trace amine-associated receptor 1 (hTAAR1) was determined as previously described. More information can be found in the Supplementary information.
Then, the obtained RA values were used to calculate the bias factor (β) for each pathway combination. […]
pathway 1 over pathway 2. Brown-Forsythe and Welch ANOVA analyses were applied to estimate the statistical probability that β is different from zero.
3.3 Functional activity at the human TAAR1 […]
receptor 1 (hTAAR1) were generated by transfection with Lipofectamine 2000 (Invitrogen, Zug, Switzerland). The cells were harvested and pelleted by centrifugation at 900 rpm for 3 min at room temperature. The supernatant was then removed, and the cell pellet was resuspended in fresh culture medium. The cells were plated into 96 -well plates (100 μL, containing 80,000 cells per well) and incubated […]
The culture medium was removed, and the cells were washed once with 50 μL phosphate buffered saline without Ca2+ and Mg2+. Thereafter, 90 μL of Krebs -Ringer bicarbonate buffer (Sigma- […]
to 10 μM cAMP) was included on each plate. In addition, a reference plate containing RO5256390, β-phenylethylamine, and p-tyramine was included in each experiment. Test compound solution, β-phenylethylamine (as maximal response), or basal control were added at a volume of 30 μL, and the cells […]
Afterwards, the cells were lysed with 50 μL of detection mix solution […]
under heavy shaking. Fluorescence was then measured.
3.4 Plasma and brain tissue analysis
3.4.1 Analytical standards […]
to spike blank plasma or tissue homogenate at calibration standards of 1, 2.5, 5, 10, 25, 50, 100, 250, and […]
Extraction was performed by protein precipitation with 150 µL of acetonitrile added to 50 µL plasma in a 2-mL centrifuge tube. The samples were then vortexed for 10 s and shaken for 3 min at […]

The nature of data set [1]: In vivo microdialysis (striatum) with plasma and brain levels after co-administration of DOM and DOAM. On the set-up: species or system mouse. Conditions: 0.5 mg/kg s.c. each; for Dialysate concentration (striatal microdialysis) after co-administration of DOM and DOAM: dialysate collected 30 min post injection, detection limit 0.04 ng/mL; for concentration at 30 min: both sexes, C57BL/6JRj, mouse, subcutaneous, 30 min post injection, mice. Here is the method:
Microdialysis experiments were conducted as previously reported with minor modifications; involved procedures were approved by the Cantonal Veterinary Office Basel-Stadt, in accordance with Swiss law. Three male and two female C57BL/6JRj mice (Janvier Labs, France) aged 11–14 weeks were used. During stereotactic surgeries, a guide cannula (CMA7; CMA Microdialysis AB, Sweden) directed to the striatum was implanted at 0.6 AP, 1.8 ML and -1.5 DV from bregma and fixed with dental cement. On the day of microdialysis, a microdialysis probe (CMA7, 3-mm probe length) was inserted into the guide cannula and perfused with artificial cerebrospinal fluid (119 mM NaCl, 11 mM D-glucose, 26.2 mM NaHCO3, 2.5 mM KCl, 1.3 mM MgCl2, 1 mM NaH2PO4, and 2.5 mM CaCl2) at 1 µL/min. The dialysate was collected for 30 min before s.c. injection of a mixture of DOM and DOAM (dissolved in DMSO/Tween80/saline; 1:1:18) yielding a dose of 0.5 mg/kg body weight for each substance. The dialysate post injection was collected for 30 min followed by decapitation under isoflurane anesthesia. Plasma obtained from trunk blood and homogenates of the forebrains (0.5 g brain tissue per 1 mL ice-cold water) were prepared for LC–MS/MS analysis. One hemisphere of the brain from each mouse was fixed in 4% paraformaldehyde, sectioned, and stained with Hoechst dye (2 µg/mL for 30 min) to confirm the placement of the microdialysis probe in the striatum. After running microdialysis in one or two mice, the recoveries of the microdialysis probes were assessed by collecting dialysate for 15 min at 1 µL/min with the probe immersed in a mixture of DOM and DOAM (1 µg/mL each; in artificial cerebrospinal fluid).
Data analysis was performed with Prism software (version 10.1.2, GraphPad Software, Boston, MA, USA). The IC50 values from the radioligand binding assays were determined by nonlinear regression, using three independent concentration-response curves fitted to a one-site model. The Cheng-Prusoff equation was used to calculate Kᵢ values for the competing ligands. EC50 values were determined by applying nonlinear regression to concentration-response curves. Bias factors (β) were calculated based on the relative intrinsic activity approach. More detailed information can be found in the Supplementary information. Mean values for total number of HTR, change in body temperature from pre to post session (Δ°C), and total distance traveled (cm) for each drug dose were compared (p < 0.05) via Welch’s ANOVA with Dunnett’s T3 post test, comparing all doses to respective vehicle controls (0 mg/kg). Welch’s ANOVA with Dunnett’s T3 post test was also used to compare drug concentrations, but the data were compared to DOM in this case. Dose–response relationships for HTR and locomotor activities were plotted using bell-shaped curve fits, while temperature change data were plotted using four-parameter non-linear regression curve fits. The ascending phase of the HTR curve for each drug was used to determine ED50 potency values from four parameter non-linear regression fits. For combined DOM and DOAM administration, the plasma, brain tissue, and brain dialysate drug concentrations were compared using paired t-tests (p < 0.05). Ratios were compared using Holm-Sidak’s post hoc test following a repeated-measures one-way ANOVA (F (1.709, 6.835) = 70.80; p < 0.0001).

A further data set deals with mice. On the set-up: method as in ref 20 (Halberstadt et al. 2020). As to conditions: ref 20 (Halberstadt et al. 2020), cited from earlier work; for HTR in mice ED50 (95% CI): i.p.
Where [2] appears, read: brain (forebrain homogenate), read-out: Brain tissue level after co-administration of DOM and DOAM.
Where [3] appears, read: plasma, read-out: Plasma level after co-administration of DOM and DOAM.

Like-named read-outs stand apart in the source and are kept apart here. Where only a bound is given, the exact number is not on record here.

Turning to `COc1ccc(OC)c(CC(C)N)c1.Cl` (centres unmarked) [2,5-DMA, 2,5-Dimethoxyamphetamine hydrochloride], the EC50 on hTAAR1 was > 30 µM.

Regarding `CCCCCc1cc(OC)c(CC(C)N)cc1OC` (centres unmarked) [DOAM, 4-amyl-2,5-dimethoxyamphetamine], the “Dialysate concentration (striatal microdialysis) after co-administration of DOM and DOAM” value in data set [1] is reported as < 0.04 ng/mL. Besides, the concentration at 30 min in data set [1] (setting [2]) turned out to be 276 ng/g. For the same molecule, in data set [1] (setting [3]), the concentration at 30 min is 12 ng/mL. On hTAAR1, the EC50 is 21.8 µM and the Emax was determined as 86%.

For `CCCCc1cc(OC)c(CC(C)N)cc1OC` (centres unmarked) [DOBU, 4-butyl-2,5-dimethoxyamphetamine], on hTAAR1, the EC50 was 10.4 µM and the Emax was determined as 98%. The “HTR in mice ED50 (95% CI)” value in the data set on mice is listed as 1.17 mg/kg.

In the case of `CCc1cc(OC)c(CC(C)N)cc1OC` (centres unmarked) [DOET, 4-ethyl-2,5-dimethoxyamphetamine], in the data set on mice, the “HTR in mice ED50 (95% CI)” value is recorded as 0.20 (0.11–0.36) mg/kg and the “HTR in mice Emax” value was 122 total HTR count.

Turning to `COc1cc(CC(C)N)c(OC)cc1C` (centres unmarked) [DOM, 4-methyl-2,5-dimethoxyamphetamine], the “Dialysate concentration (striatal microdialysis) after co-administration of DOM and DOAM” value in data set [1] is given as 0.82 ng/mL. Besides, the concentration at 30 min came to 463 ng/g in data set [1] (setting [2]) and 26 ng/mL in data set [1] (setting [3]). The EC50 on hTAAR1 was > 30 µM.

With `CCCc1cc(OC)c(CC(C)N)cc1OC.Cl` (centres unmarked) [DOPR, 4-propyl-2,5-dimethoxyamphetamine hydrochloride], at hTAAR1, the EC50 is 10.1 µM and the Emax was 95%.

For orientation: EC50 means the concentration giving half of the maximal effect. Broadly, the Emax is the size of the effect at its maximum, as opposed to the concentration needed.
